Assay results as given in patent US20130116277A1, “ALDO-KETO REDUCTASE SUBFAMILY 1C3 (AKR1C3) INHIBITORS” (priority 2007, published 2013).
Values joined by “and” are separate entries in the source; they are usually repeats but may differ in a detail not shown here. Identical values can stand only once. Like-named read-outs stand apart in the source and are kept apart here.

Experiments:
ER-alpha = target: T1, ER-alpha (Homo sapiens, UniProt P03372); test: ER-alpha transactivation (ERE-LUC luciferase) in HEK-293 cells; format: cell-based; details: for IC50: antagonist mode, in combination with estradiol, read-out: Antagonist ER-α; for EC50: read-out: Agonist ER-α;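 as to all read-outs here: HEK-293 cells co-transfected with an ER-alpha expression plasmid, an ERE-driven firefly luciferase reporter and a CMV Renilla control, with the firefly signal normalized to Renilla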
T1 construct: expressed in transfected cells; host or cells: HEK-293
T1 sequence (P03372 1-595): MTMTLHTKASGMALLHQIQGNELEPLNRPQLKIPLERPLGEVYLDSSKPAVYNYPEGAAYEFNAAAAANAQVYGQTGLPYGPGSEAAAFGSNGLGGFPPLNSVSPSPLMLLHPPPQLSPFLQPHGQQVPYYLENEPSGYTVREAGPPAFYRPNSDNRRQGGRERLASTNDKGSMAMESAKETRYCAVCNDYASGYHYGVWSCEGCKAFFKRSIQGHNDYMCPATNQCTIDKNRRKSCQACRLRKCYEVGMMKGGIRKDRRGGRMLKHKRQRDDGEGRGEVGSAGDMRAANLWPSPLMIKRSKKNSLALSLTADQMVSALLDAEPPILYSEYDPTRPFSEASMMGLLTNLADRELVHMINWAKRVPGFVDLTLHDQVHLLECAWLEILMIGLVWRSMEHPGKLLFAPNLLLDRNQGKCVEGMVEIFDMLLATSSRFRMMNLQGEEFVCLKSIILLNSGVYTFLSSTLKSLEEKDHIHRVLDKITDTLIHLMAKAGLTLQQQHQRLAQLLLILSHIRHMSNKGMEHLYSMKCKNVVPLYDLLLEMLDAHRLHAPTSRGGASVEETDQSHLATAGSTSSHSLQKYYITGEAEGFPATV

ER-β = ER-β (Homo sapiens, UniProt Q92731); test: ER-β ligand binding domain competitive binding with [3H]Estradiol
ER-β, sequence (Q92731 264-498 limits assumed, species assumed): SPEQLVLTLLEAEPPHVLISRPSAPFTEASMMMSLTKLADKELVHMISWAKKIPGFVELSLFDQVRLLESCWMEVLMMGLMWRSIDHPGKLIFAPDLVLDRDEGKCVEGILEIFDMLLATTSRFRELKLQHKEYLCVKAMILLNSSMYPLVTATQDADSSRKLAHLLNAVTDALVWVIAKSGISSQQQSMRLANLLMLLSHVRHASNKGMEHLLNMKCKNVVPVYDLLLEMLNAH

ER-α = target: T2, ER-α (Homo sapiens, UniProt P03372); test: ER-α ligand binding domain competitive binding with [3H]Estradiol
T2 sequence (P03372 311-547 limits assumed): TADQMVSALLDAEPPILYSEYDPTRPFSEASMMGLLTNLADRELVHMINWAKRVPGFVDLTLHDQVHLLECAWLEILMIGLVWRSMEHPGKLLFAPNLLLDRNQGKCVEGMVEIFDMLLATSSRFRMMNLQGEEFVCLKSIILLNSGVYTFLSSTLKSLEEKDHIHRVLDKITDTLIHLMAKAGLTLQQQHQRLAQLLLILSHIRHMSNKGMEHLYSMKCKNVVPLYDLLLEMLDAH

AKR1C3 [1] = target: T3, AKR1C3 (Homo sapiens, UniProt P42330); test: Purified AKR1C3 enzyme assay, [14C]-A'dione to testosterone, TLC based; format: biochemical; design: GST (N); made in house; host or cells: bacterial culture, IPTG induced (E. coli BL21-DE3 is named only for the crystallography preparation)
T3 sequence (P42330 1-323): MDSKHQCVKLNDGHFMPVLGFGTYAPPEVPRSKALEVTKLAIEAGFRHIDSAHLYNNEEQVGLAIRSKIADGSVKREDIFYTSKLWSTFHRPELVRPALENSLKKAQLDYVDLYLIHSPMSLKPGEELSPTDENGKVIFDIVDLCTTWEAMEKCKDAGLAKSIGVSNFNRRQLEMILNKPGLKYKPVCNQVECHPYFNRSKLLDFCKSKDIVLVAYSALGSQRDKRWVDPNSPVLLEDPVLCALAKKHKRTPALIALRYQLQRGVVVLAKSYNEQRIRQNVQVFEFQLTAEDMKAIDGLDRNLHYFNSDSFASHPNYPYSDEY
Procedure: Perkin Elmer; […] American Radiolabeled Chemicals, St. Louis, Mo.). The reaction was stopped by the addition of 400 μl ethyl acetate, vortexed, and spun for […] at 2000 rpm. The upper layer was transferred to a new tube and air dried. The pellet was resuspended in 25 μl of methanol, spotted on TLC plates and fractionated in TLC chamber with 3:1 chloroform:ethyl acetate. Once the mobile phase reached the top, the plates were dried and exposed to a phosphoimager screen overnight. […] Perkin Elmer) was incubated at 37° C. for 60 min. The reaction was stopped by the addition of 400 μl ethyl acetate, vortexed, and spun for […] at 2000 rpm. The upper layer was transferred to a new tube and air dried. The pellet was resuspended in 25 μl of methanol, spotted on TLC plates and fractionated in TLC chamber with 3:1 chloroform:ethyl acetate. Once the mobile phase reached the top, the plates were dried and exposed to a phosphoimager screen overnight.

[2] = Liver microsome incubation (HLM Phase I and Phase I + II), LC-MS/MS; format: in vitro ADME, human; details: for microsomal CLint: human, human liver microsomes
Procedure: Stock solutions of prespective AKR1C3 inhibitors were prepared in DMSO at 5 mM and were incubated with liver microsomes (0.1 mg/mL). Incubations were conducted at 37° C. in a shaking water bath for 10 minutes (microsomes). Incubation durations were selected based on time course study (microsomes) or published literature (recombinant enzymes). Prepared samples were analyzed using LC-MS/MS.

ER-beta = target: T4, ER-beta (Homo sapiens, UniProt Q92731); test: ER-beta transactivation (ERE-LUC luciferase) in HEK-293 cells; format: cell-based; details: for IC50: antagonist mode, in combination with estradiol, read-out: Antagonist ER-β; for EC50: read-out: Agonist ER-β;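 as to all read-outs here: HEK-293 cells transiently transfected with an ER-β expression plasmid and ERE-LUC reporter, firefly luciferase read-out normalized to co-transfected Renilla luciferase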
T4 construct: expressed in transfected cells; host or cells: HEK-293
T4 sequence (Q92731 whole entry, species assumed): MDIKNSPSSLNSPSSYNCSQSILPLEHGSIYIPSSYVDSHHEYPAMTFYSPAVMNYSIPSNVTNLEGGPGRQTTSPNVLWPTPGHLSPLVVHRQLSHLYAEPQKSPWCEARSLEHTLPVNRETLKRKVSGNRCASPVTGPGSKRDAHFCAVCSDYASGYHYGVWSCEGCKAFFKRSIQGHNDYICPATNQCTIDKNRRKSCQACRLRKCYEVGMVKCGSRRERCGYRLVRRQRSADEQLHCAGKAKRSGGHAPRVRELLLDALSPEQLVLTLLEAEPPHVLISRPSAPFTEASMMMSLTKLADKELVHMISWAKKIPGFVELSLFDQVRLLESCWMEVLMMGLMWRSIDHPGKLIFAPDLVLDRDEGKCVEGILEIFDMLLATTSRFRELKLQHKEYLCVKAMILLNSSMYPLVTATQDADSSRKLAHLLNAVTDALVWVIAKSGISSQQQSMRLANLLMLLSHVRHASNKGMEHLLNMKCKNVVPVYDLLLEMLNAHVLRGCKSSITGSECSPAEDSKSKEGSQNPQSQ

AKR1C3 [3] = target: T3, AKR1C3; test: cell-based
[4] = read-out: % inhibition from control HSD-5 (10 uM)
[5] = HLM Phase I + II, read-out: HLM Phase I + II CLint
[6] = HLM Phase I, read-out: HLM Phase I CLint
[7] = 10 μM inhibitor, purified AKR1C3 TLC based enzyme assay, read-out: AKR1C3 inhibition at 10 μM

Agonist ER-α (ER-alpha; agonist mode, drug alone) | IC50 (ER-alpha) [µM] | Ki (ER-β) [nM] | Ki (ER-α) [nM] | inhibition at 10 µM (AKR1C3 [1]; [4]) [%] | HLM Phase I + II CLint ([2]; HLM Phase I + II) [µL/min/mg] | HLM Phase I + II T-1/2 ([2]; HLM Phase I + II) | microsomal CLint [2, 5] [µL/min/mg] | microsomal CLint [2, 6] [µL/min/mg] | Agonist ER-β (ER-beta; agonist mode, drug alone) | IC50 (ER-beta) [µM] | EC50 (ER-alpha; agonist mode, drug alone) [µM] | EC50 (ER-beta; agonist mode, drug alone) [µM] | inhibition at 10 µM (AKR1C3 [1]; [7]) [%] | SMILES | HLM Phase I CLint ([2]; HLM Phase I) | HLM Phase I T-1/2 ([2]; HLM Phase I) | IC50 (AKR1C3 [3]) [µM]
Partial agonist | 1.72 | 7.23 | 503 | 30 | 460 | 1.56 min and 1.5 min | 442 | 16 | Partial agonist | 2.21 |  |  |  | O=c1c2c(O)cc(O)cc2c(Br)cn1-c1cccc(O)c1 [ZW-315-047] | 20.16 µL/min/mg and 19.5 µL/min/mg and 23.7 µL/min/mg | 41.58 min and 33.55 min and 35.5 min and 29.3 min | 
 |  | > 220 | > 151 | 12 |  |  |  |  |  |  |  |  |  | O=C(O)/C=C/c1cn(-c2ccc(O)cc2)c(=O)c2ccc(O)cc12 [Compound 15k] |  |  | 
 | > 10 | > 2200 | > 1510 | 0 |  |  |  |  |  | > 10 | > 10 | > 10 | 0 | COc1ccc(-n2cc(-c3ccc(C(F)(F)F)cc3)c3cc(OC)ccc3c2=O)cc1 [Compound 35, 6-methoxy-2-(4-methoxyphenyl)-4-(4-(trifluoromethyl)phenyl)isoquinolin-1(2H)-one] |  |  | 
 | > 10 | > 2200 | > 1510 | 10 |  |  |  |  |  | > 10 | > 10 | > 10 | 10 | O=c1c2ccc(O)cc2c(-c2ccc(C(F)(F)F)cc2)cn1-c1ccc(F)cc1 [Compound 34, 2-(4-fluorophenyl)-6-hydroxy-4-(4-(trifluoromethyl)phenyl)isoquinolin-1(2H)-one] |  |  | 
 | > 10 | 56.2 | 1420 | 0 |  |  |  |  |  | 1.95 | > 10 | > 10 | 0 | O=c1c2ccc(O)cc2c(-c2ccc(O)cc2)cn1-c1ccc(O)cc1 [Compound 6, 6-hydroxy-2,4-bis(4-hydroxyphenyl)isoquinolin-1(2H)-one] |  |  | 
 | > 10 | > 2200 | > 1510 | 10 |  |  |  |  |  | > 10 | > 10 | > 10 |  | CCOC(=O)/C=C/c1cn(-c2ccc(OC)cc2)c(=O)c2c(O)cc(OC)cc12 [Compound 15j] |  |  | 
 | > 10 | > 2200 |  | 55 |  | 5.0 min | 138 | 84.1 |  | > 10 | > 10 | > 10 | 55 | O=c1c2ccc(O)cc2c(-c2ccc(O)cc2)cn1-c1ccc(CBr)cc1 [Compound 11, 2-(4-bromomethyl)phenyl-6-hydroxy-4-(4-hydroxyphenyl)isoquinolin-1(2H)-one] | 119 µL/min/mg | 8.23 min and 5.90 min | 5.18
 | > 10 | > 2200 | > 1510 | 17 |  |  |  |  |  | > 10 | > 10 | > 10 | 17 | COc1ccc(-c2cn(-c3ccc(CO)cc3)c(=O)c3ccc(OC)cc23)cc1 [Compound 10, 2-(4-hydroxymethyl)phenyl-6-methoxy-4-(4-methoxyphenyl)-isoquinolin-1(2H)-one] |  |  | 

SMILES | Agonist ER-α (ER-alpha; agonist mode, drug alone) | IC50 (ER-alpha) [µM] | Ki (ER-β) [nM] | Ki (ER-α) [nM] | inhibition at 10 µM (AKR1C3 [1]; [4]) [%] | HLM Phase I + II CLint ([2]; HLM Phase I + II) [µL/min/mg] | HLM Phase I + II T-1/2 ([2]; HLM Phase I + II) | microsomal CLint [2, 5] [µL/min/mg] | microsomal CLint [2, 6] [µL/min/mg] | Agonist ER-β (ER-beta; agonist mode, drug alone) | IC50 (ER-beta) [µM] | EC50 (ER-alpha; agonist mode, drug alone) [µM] | EC50 (ER-beta; agonist mode, drug alone) [µM] | inhibition at 10 µM (AKR1C3 [1]; [7]) [%] | HLM Phase I CLint ([2]; HLM Phase I) | HLM Phase I T-1/2 ([2]; HLM Phase I) | IC50 (AKR1C3 [3]) [µM]
O=c1c2c(O)cc(O)cc2c(-c2ccccc2)cn1-c1ccc(O)cc1 [Compound 15h, 6,8-dihydroxy-2-(4-hydroxyphenyl)-4-phenylisoquinolin-1(2H)-one] |  | 2.03 | 3.03 |  | 0 |  | 11.4 min | 60.7 | 7.9 |  | 0.0534 | > 10 | > 10 |  |  | 87.1 min | 6.64
